Experimental data from patent US20210040041A1, “QUINOLINE DERIVATIVES AND PREPARATION METHODS AND USES THEREOF” (DONGGUAN HEC PESTICIDES R&D CO., LTD., priority 2018, published 2021).

What was measured:
Format in all cases: in vivo
Armyworm [1] = assay: Test examples 3: leaf dipping method, cabbage, Armyworm
Description: (§1) A certain amount of compound (0.0001 g) was weighed by using an analytical balance, and prepared to a mother liquid (1) with N,N-dimethylformamide containing 1% Tween-80 emulsifier, and then the other liquid was diluted with distilled water or standby.
(§2) Leaf dipping method: an appropriate amount of cabbage was infiltrated in the prepared liquid and dried in the shade naturally, and then placed in a culture dish with filter paper; Armyworm/Diamondback moth larvae in the 2-3rd instar were inoculated, 10 heads per dish, and the dishes were cultured in an observation room at 24-27° C. The results were investigated after 3 days. […] The test concentrations were 50 mg/L, 25 mg/L, 12.5 mg/L, 6.25 mg/L, 3.13 mg/L, 1.56 mg/L.

Diamondback moth [2] = assay: Test examples 3: leaf dipping method, cabbage, Diamondback moth; details: for mortality at 12.5 µg/mL / mortality at 25 µg/mL / mortality at 50 µg/mL: Plutella xylostella, foliar, 72 h, after 3 days, read-out: The mortality rate (%) to Diamondback moth; for mortality at 12.5 µg/mL: 12.5 mg/L; for mortality at 25 µg/mL: 25 mg/L; for mortality at 50 µg/mL: 50 mg/L
Description: as §1, §2

Armyworm [3] = assay: Test examples 1: leaf dipping method, corn leaves, Armyworm; details: Mythimna separata, foliar, 72 h; 200 mg/L, third instar larvae, after 3 days; read-out: mortality rate to Armyworm
Description: (§3) A certain amount of compound (0.0001 g) was weighed by using an analytical balance, and prepared to a mother liquid (1) with N,N-dimethylformamide containing 1% Tween-80 emulsifier, and then the mother liquid was diluted with distilled water for standby.
(§4) Leaf dipping method: the test target was Armyworm. An appropriate amount of corn leaves were infiltrated in the prepared liquid and dried in the shade naturally, and then placed in a culture dish with filter paper; armyworm larvae in the third instar were inoculated to the corn leaves, 10 heads per dish, and the dishes were cultured in an observation room at 24-27° C. The results were investigated after 3 days. […] The test concentration was 200 mg/L.

[4] = test system: Frankliniella occidentalis; assay: Test examples 2: spraying of cowpea leaf discs, Frankliniella occidentalis; details: foliar, 24 h, after 1 day, read-out: The mortality rate (%) of the compound to Frankliniella occidentalis
Description: (§5) A certain amount of compound (0.0001 g) was weighed by using an analytical balance, and prepared to a mother liquid (1%) with N, N-dimethylformamide containing 1% Tween-80 emulsifier, and then the mother liquid was diluted with distilled water for standby.
Spraying: cowpea leaves growing uniformity were punched with a punching bear to make leaf discs, leaf discs were placed onto degreased cotton blocks in a dish, two leaf discs per dish, and water was added into the dish and it was flush with the leaf discs, and the dish was for standby. Frankliniella occidentalis in the 2-3rd instar were inoculated to the ready leaf discs, more than 15 per disc. Which were spayed under Potter spray tower at a dose of 0.5 mL per treatment. The blank control was treated first, and then the above operations were repeated in the order of the test dose from low to high, with 2 repeats per treatment. After treatment, the samples were placed in the observation room, and the results were investigated 1 day later. […] The test concentrations were 20 mg/L, 10 mg/L, 5.0 mg/L, 2.5 mg/L, 1.25 mg/L, 0.625 mg/L.

Brown rice planthopper = assay: Test examples 1: spraying leaves and stems, rice seedlings, Brown rice planthopper; details: 500 mg/L, after 72 hours; read-out: mortality rate to Brown rice planthopper
Description: as §3
Spraying Leaves and Stems: the test target was Brown rice planthopper. Rice seedlings inoculated with Brown rice planthopper were spayed under Potter spray tower, and then the Brown rice planthopper was placed and cultured in an observation room at 24-27° C. The results were investigated after 72 hours. The test concentration was 500 mg/L.

Beet Armyworm [5] = assay: Test examples 1: leaf dipping method, cabbage leaves, Beet Armyworm; details: Spodoptera exigua, foliar, 72 h; 100 mg/L, third instar, after 3 days; read-out: mortality rate to Beet Armyworm
Description: as §3
as §4, with “targets were Diamondback moth, Tobacco Cutworm and Beet” for “target was”, “cabbage” for “corn”, “worms” for “armyworm larvae”, “the” for “the corn”, “200 mg/L or 100” for “200”

Beet Armyworm [6] = assay: Test examples 2: leaf dipping method, Beet Armyworm; details: Spodoptera exigua, foliar, 72 h, after 3 days, read-out: The mortality rate (%) of the compound to Beet Armyworm
Description: as §5
as §2, with “corn leaves/cabbage/cowpea were” for “cabbage was”, “armyworm/Diamondback moth/Beet Armyworm” for “Armyworm/Diamondback moth”, “inoculated to the corn leaves,” for “inoculated,”

Diamondback moth [7] = assay: Test examples 2: leaf dipping method, Diamondback moth; details: Plutella xylostella, foliar, 72 h, after 3 days, read-out: The mortality rate (%) of the compound to Diamondback moth
Description: as §5
as §2, with “corn leaves/cabbage/cowpea were” for “cabbage was”, “armyworm/Diamondback moth/Beet Armyworm” for “Armyworm/Diamondback moth”, “inoculated to the corn leaves,” for “inoculated,”

Diamondback moth [8] = assay: Test examples 1: leaf dipping method, cabbage leaves, Diamondback moth; details: Plutella xylostella, foliar, 72 h; 200 mg/L, third instar, after 3 days; read-out: mortality rate to Diamondback moth
Description: as §3
as §4, with “targets were Diamondback moth, Tobacco Cutworm and Beet” for “target was”, “cabbage” for “corn”, “worms” for “armyworm larvae”, “the” for “the corn”, “200 mg/L or 100” for “200”

Aphis medicaginis = assay: Test examples 1: leaves dish spraying, Vicia faba leaves, Aphis medicaginis; details: 500 mg/L, after 48 hours, read-out: mortality rate to Aphis medicaginis
Description: as §3
Leaves Dish Spraying: the test targets were tetranychuscinnabarinus and Aphis craccivora Koch. Vicia faba leaves inoculated with Carmine Spider Mite and Aphis medicaginis were spayed under Potter spray tower, and then the Carmine Spider Mite was placed and cultured in anobservation room at 24-27° C.; the Aphis medicaginis was placed and cultured in an observation room at 20-22° C. The results were investigated after 48 hours. […] The test concentration was 500 mg/L.

Armyworm [9] = assay: Test examples 2: leaf dipping method, Armyworm; details: Mythimna separata, foliar, 72 h, after 3 days, read-out: The mortality rate (%) of the compound to Armyworm
Description: as §5
as §2, with “corn leaves/cabbage/cowpea were” for “cabbage was”, “armyworm/Diamondback moth/Beet Armyworm” for “Armyworm/Diamondback moth”, “inoculated to the corn leaves,” for “inoculated,”

Tobacco Cutworm = assay: Test examples 1: leaf dipping method, cabbage leaves, Tobacco Cutworm; details: foliar, 72 h; 100 mg/L, third instar, after 3 days; read-out: mortality rate to Tobacco Cutworm
Description: as §3
as §4, with “targets were Diamondback moth, Tobacco Cutworm and Beet” for “target was”, “cabbage” for “corn”, “worms” for “armyworm larvae”, “the” for “the corn”, “200 mg/L or 100” for “200”

CCc1nc2cc(C)c(Oc3ccc(OC(F)(F)F)cc3)c(C)c2c(O)c1C [compound (42), 2-ethyl-3,5,7-trimethyl-6-(4-(trifluoromethoxy)phenoxy)quinolin-4-ol] was tested, and the “control effect on Armyworm” value (Armyworm [1]; in words, different doses) was “significant control effect”, the mortality at 12.5 µg/mL (Diamondback moth [2]) was 100% and the mortality at 25 µg/mL (Diamondback moth [2]) was 100%. For the same molecule, the mortality at 50 µg/mL (Diamondback moth [2]) was 100% and the “control effect on Diamondback moth” value (Diamondback moth [2]; in words, different doses) was “significant control effect”.
In the case of CCc1nc2cc(C)c(Oc3ccc(OC(F)(F)F)cc3)cc2c(OC(=O)OCCOC)c1C [Example 1, 2-ethyl-3,7-dimethyl-6-(4-(trifluoromethoxy)phenoxy)quinolin-4-yl (2-methoxyethyl)carbonate], the mortality at 200 µg/mL (Armyworm [3]) is reported as 100%, the mortality at 5 µg/mL ([4]; 5 mg/L) is reported as 100% and the mortality at 10 µg/mL ([4]; 10 mg/L) is reported as 100%. The mortality at 20 µg/mL ([4]; 20 mg/L) was 100%, the mortality at 500 µg/mL (Brown rice planthopper) was 100% and the mortality at 100 µg/mL (Beet Armyworm [5]) was 100%. The mortality at 12.5 µg/mL (Beet Armyworm [6]; 12.5 mg/L) was 90%, the mortality at 25 µg/mL (Beet Armyworm [6]; 25 mg/L) was 100% and the mortality at 50 µg/mL (Beet Armyworm [6]; 50 mg/L) was 100%. For the same molecule, the mortality at 12.5 µg/mL (Diamondback moth [7]; 12.5 mg/L) was 100%, the mortality at 25 µg/mL (Diamondback moth [7]; 25 mg/L) was 100% and the mortality at 50 µg/mL (Diamondback moth [7]; 50 mg/L) was 100%. It also gave a mortality at 200 µg/mL (Diamondback moth [8]) of 100%, a mortality at 500 µg/mL (Aphis medicaginis) of 100% and a mortality at 12.5 µg/mL (Armyworm [9]; 12.5 mg/L) of 100%. It also gave a mortality at 25 µg/mL (Armyworm [9]; 25 mg/L) of 100%, a mortality at 50 µg/mL (Armyworm [9]; 50 mg/L) of 100% and a mortality at 100 µg/mL (Tobacco Cutworm) of 100%.
With CCc1nc2cc(C)c(Oc3ccc(OC(F)(F)F)cc3)cc2c(O)c1C [compound NO. 119, reference compound] the mortality at 12.5 µg/mL (Armyworm [1]; Mythimna separata, foliar, 72 h, 12.5 mg/L, after 3 days, read-out: The mortality rate (%) to Armyworm) was 10%, the mortality at 25 µg/mL (Armyworm [1]; Mythimna separata, foliar, 72 h, 25 mg/L, after 3 days, read-out: The mortality rate (%) to Armyworm) was 50% and the mortality at 50 µg/mL (Armyworm [1]; Mythimna separata, foliar, 72 h, 50 mg/L, after 3 days, read-out: The mortality rate (%) to Armyworm) was 60%. For the same molecule, the mortality at 12.5 µg/mL (Diamondback moth [2]) was 70%, the mortality at 25 µg/mL (Diamondback moth [2]) was 90% and the mortality at 50 µg/mL (Diamondback moth [2]) was 100%.
